Measured values published in patent US10793522B2, “Sulfonamides as inhibitors of the uptake of extracellular citrate” (Boehringer Ingelheim International GmbH, priority 2016, dated 2020).
pIC50: −log10 of the molar value.

target: hSLC13A5 (Homo sapiens, UniProt Q86YT5); experiment: Recombinant hSLC13A5/14C-citrate uptake assay; type: cell-based; conditions: HEK293 Flp-In cells over-expressing hSLC13A5; WGA-PVT SPA beads; 14C-citrate approx. 2 μM; 4 h
Source text: (5) Recombinant hSLC13A5/^14C-Citrate Uptake Assay
The human embryonic kidney 293 (HEK 293)-Flp-In cells (293Flp-In-hSLC13A5) over-expressing hSLC13A5 transporter were cloned: The originating plasmid pcDNA3.1-hSLC13A5 containing hSLC13A5 was synthesized at GeneArt. The cDNA for hSLC13A5 was taken from this plasmid by means of PCR amplification using primers with added HindIII (N-terminal) and XhoI (C-terminal) restriction sites and sub-cloned in frame into pcDNA5/FRT from Invitrogen using the respective restriction enzymes. HEK293 Flp-In cells from Invitrogen were stably co-transfected using the pcDNA/FRT-hSLC13A5 plasmid as well as the pOG44 plasmid.
HEK 293-Flp-In cells are used that stably over-express hSLC13A5 transporter which is responsible for the uptake of citrate into these cells.
The uptake of ^14C-citrate into the 293Flp-In-hSLC13A5 cells is monitored using the WGA-PVT SPA (wheat germ agglutinin-polyvinyltoluene scintillation proximity assay) beads that bind to the 293Flp-In cells due to their WGA-PVT surface. This assay format is based on the imported radioactive citrate brought into proximity with the SPA beads by virtue of the biological processes within the cells. The radioactive decay is converted into a light signal that can be measured using e.g. the TopCount plate reader.
Method: ^14C-Citrate Uptake Assay
Test Compound Dilutions (2Fold-Concentrated):
Starting from 10 mM stock solutions in 100% DMSO, compounds are diluted in pure DMSO using the appropriate dilution steps.
Prior to the uptake assay, 200 μL assay medium (lx HBSS (with Ca^2+ and Mg^2+, w/o Phenolred), contains 5.56 mM D(+)-Glucose)+19.44 mM D(+)-Glucose (final concentration of D(+)-Glucose is 25 mM))+4.8 μL compound solution (or pure DMSO for non-inhibited control wells) are mixed (final DMSO concentration in the assay: 1% (v/v)).
After preparing the 2fold-concentrated test compound dilutions, 50 μL are pipetted to each well of white OptiPlates-96 and incubated at 37° C. in an incubator.
^14C-Citrate Working Solution (Volumes Required Per 96-Well):
The 293Flp-In-hSLC13A5 cells are cultivated in cell culture medium (DMEM+10% fetal calf serum+100 μg/mL Hygromycin B). The medium of the confluent cultures is discarded and the cells are washed with DPBS (w/o Mg^2+ w/o Ca^2+). The cells are detached by the addition of 2.0 mL Accumax per 75 cm^2 culture flask for up to 3 minutes at 37° C. and resuspended in 10 mL assay medium. After cell counting, 50,000 cells/well are administered in a volume of 50 μL into the white OptiPlates-96 containing the respective test compound concentrations. Following a 20 min incubation at 37° C. in the cell culture incubator, 20 μL of ^14C-citrate working solution is added to each well (final volume per well: 120 μL; final ^14C-citrate concentration: approx. 2 μM/well).
After incubation for 4 h at 37° C. in a humid cell culture incubator and the addition of 30 μL of WGA-PVT SPA beads to each well (0.25 mg/well), the plates are sealed on the top using a transparent plastic foil. Incubate the plates for 1 h by room temperature and gentle shaking.
After incubation, the plate is placed into the TopCount NXT HTS and the signal is recorded.
The performance of the test compounds is calculated as follows:
Wells containing cells incubated with 1% DMSO only deliver values for the non-inhibited ^14C-citrate uptake into 293Flp-In-hSLC13A5 cells (100% CTL). Wells containing cells which have received 30 mM non-labelled potassium citrate solution in addition to the ^14C-citrate working solution deliver values for the background (0% CTL).
The IC50 values of the compounds are calculated in IDBS XLfit by sigmoidal dose-response (variable slope).

Sequence of hSLC13A5 (Q86YT5 whole entry): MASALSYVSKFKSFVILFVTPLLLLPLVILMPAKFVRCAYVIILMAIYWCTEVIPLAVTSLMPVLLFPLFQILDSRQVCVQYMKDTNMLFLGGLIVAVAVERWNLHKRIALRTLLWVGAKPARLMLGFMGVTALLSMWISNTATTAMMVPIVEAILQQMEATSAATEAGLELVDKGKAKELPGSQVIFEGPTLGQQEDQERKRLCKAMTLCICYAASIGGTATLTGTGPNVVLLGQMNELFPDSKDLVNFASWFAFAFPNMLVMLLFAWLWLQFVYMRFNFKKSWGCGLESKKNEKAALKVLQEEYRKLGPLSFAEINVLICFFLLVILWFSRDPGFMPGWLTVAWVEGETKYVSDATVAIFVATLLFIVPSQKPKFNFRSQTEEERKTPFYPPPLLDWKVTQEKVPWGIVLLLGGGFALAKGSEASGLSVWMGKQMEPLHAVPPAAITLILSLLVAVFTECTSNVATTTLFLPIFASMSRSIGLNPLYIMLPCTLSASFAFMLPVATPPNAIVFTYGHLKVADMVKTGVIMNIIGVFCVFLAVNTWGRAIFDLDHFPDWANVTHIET

SMILES | pIC50
O=C(NCc1ccccc1F)C1CCN(S(=O)(=O)c2cc(Cl)cc(Cl)c2)CC1 [(I-2)] | 7.06
Cc1ccc(CNC(=O)C2CCN(S(=O)(=O)c3cc(Cl)cc(Cl)c3)CC2)nc1 [(I-15)] | 6.71
O=C(NCc1ccc(F)cc1)C1CCN(S(=O)(=O)c2cc(Cl)cc(Cl)c2)CC1 [(I-10)] | 7.25
O=C(NCc1ccc(F)cn1)C1CCN(S(=O)(=O)c2cc(Cl)cc(Cl)c2)CC1 [(I-20)] | 6.41
O=C(NCc1ccccn1)C1CCN(S(=O)(=O)c2cc(Cl)cc(Cl)c2)CC1 [(I-11)] | 6.16
O=C(NCc1ccc(Cl)cc1)C1CCN(S(=O)(=O)c2cc(Cl)cc(Cl)c2)CC1 [(I-5)] | 7.25

The next lines start with the values.

pIC50 | SMILES
6.81 | CCOc1cc(Cl)cc(S(=O)(=O)N2CCC(C(=O)NCc3nccs3)CC2)c1 [(I-49)]
6.47 | Cc1cnc(CNC(=O)C2CCN(S(=O)(=O)c3cc(Cl)cc(Cl)c3)CC2)s1 [(I-27)]
7.10 | N#Cc1ccc(CNC(=O)C2CCN(S(=O)(=O)c3cc(Cl)cc(Cl)c3)CC2)cc1 [Example (I-1)]
6.36 | Cc1cc(Br)cc(S(=O)(=O)N2CCC(C(=O)NCc3ccccn3)CC2)c1 [(I-61)]
